In paper PMC8185074, “Anchor extension: a structure-guided approach to design cyclic peptides targeting enzyme active sites” (Nature Communications, 2021):
pIC50: −log10 of the molar value. Peptide text beside a SMILES is read from it.

Key:
Type in all cases: biochemical
HDAC1 = biological target: T1, HDAC1 (Homo sapiens, UniProt Q13547); test: HDAC1 inhibition, full IC50 measurement (Reaction Biology; fluorogenic p53 peptide RHKK(Ac)AMC); conditions: for HDAC1 activity raw data (signal): t1/t2 replicates
T1 construct: purchased Reaction Biology Corporation (assay run by the CRO)
T1 sequence (Q13547 whole entry): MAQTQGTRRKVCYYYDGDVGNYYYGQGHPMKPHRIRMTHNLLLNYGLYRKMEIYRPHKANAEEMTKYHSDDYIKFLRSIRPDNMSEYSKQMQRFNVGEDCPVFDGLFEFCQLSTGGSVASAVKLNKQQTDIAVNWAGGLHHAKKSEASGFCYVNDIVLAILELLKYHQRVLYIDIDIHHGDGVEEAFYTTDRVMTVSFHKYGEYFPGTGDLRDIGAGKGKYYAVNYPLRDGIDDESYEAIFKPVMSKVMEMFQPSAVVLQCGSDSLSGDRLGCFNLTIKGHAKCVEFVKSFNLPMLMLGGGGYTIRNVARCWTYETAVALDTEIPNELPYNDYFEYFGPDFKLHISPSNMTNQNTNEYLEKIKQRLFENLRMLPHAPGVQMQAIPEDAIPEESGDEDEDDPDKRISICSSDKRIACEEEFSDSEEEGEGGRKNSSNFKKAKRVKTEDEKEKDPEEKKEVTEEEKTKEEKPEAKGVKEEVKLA
In short: (§1)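 Inhibitory peptides were acoustically dispensed with enzyme, then substrate added; 1 h at 30 °C. Developer stopped reaction; plateau endpoint fluorescence (360/460 nm) gave IC50.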

HDAC2 = biological target: T2, HDAC2 (Homo sapiens, UniProt Q92769); test: HDAC2 inhibition, full IC50 measurement (Reaction Biology; fluorogenic p53 peptide RHKK(Ac)AMC)
T2 construct: purchased Reaction Biology Corporation (assay run by the CRO)
T2 sequence (Q92769 whole entry): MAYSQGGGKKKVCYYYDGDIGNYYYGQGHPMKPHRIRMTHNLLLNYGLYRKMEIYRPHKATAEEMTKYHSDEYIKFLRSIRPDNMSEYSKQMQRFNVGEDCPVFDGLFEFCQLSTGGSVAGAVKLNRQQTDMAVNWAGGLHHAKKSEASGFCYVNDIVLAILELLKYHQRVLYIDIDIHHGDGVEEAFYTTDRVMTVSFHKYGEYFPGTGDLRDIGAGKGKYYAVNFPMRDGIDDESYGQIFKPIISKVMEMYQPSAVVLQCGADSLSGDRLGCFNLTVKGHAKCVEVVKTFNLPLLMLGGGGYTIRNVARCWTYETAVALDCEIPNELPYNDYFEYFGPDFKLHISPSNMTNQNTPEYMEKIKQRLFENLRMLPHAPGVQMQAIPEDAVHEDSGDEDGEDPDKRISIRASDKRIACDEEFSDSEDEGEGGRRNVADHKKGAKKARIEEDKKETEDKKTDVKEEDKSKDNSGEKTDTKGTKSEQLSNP
In short: as §1

HDAC8 = biological target: T3, HDAC8 (Homo sapiens, UniProt Q9BY41); test: HDAC8 inhibition, full IC50 measurement (Reaction Biology; fluorogenic p53 peptide RHKK(Ac)AMC); conditions: for HDAC8 activity raw data (signal): t1/t2 replicates
T3 construct: purchased Reaction Biology Corporation (assay run by the CRO)
T3 sequence (Q9BY41 1-377): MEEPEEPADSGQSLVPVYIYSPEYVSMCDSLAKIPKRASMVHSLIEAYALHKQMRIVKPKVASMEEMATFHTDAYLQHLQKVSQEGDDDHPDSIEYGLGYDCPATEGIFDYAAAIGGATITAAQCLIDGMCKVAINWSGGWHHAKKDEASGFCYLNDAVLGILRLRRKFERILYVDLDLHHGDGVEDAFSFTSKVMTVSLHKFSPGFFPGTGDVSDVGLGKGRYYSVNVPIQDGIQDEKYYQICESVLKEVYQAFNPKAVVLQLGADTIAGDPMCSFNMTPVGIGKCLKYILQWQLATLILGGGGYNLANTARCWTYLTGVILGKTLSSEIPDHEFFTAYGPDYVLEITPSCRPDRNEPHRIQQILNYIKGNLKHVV
In short: as §1

[1] = peptide conc. 1.00E-05 M, listed as des4.2.0_t1
[2] = peptide conc. 1.00E-05 M, listed as des4.2.0_t2
[3] = peptide conc. 1.11E-06 M, listed as des4.2.0_t1
[4] = peptide conc. 1.11E-06 M, listed as des4.2.0_t2
[5] = peptide conc. 1.23E-07 M, listed as des4.2.0_t1
[6] = peptide conc. 1.23E-07 M, listed as des4.2.0_t2
[7] = peptide conc. 1.37E-08 M, listed as des4.2.0_t1
[8] = peptide conc. 1.37E-08 M, listed as des4.2.0_t2
[9] = peptide conc. 1.52E-09 M, listed as des4.2.0_t1
[10] = peptide conc. 1.52E-09 M, listed as des4.2.0_t2
[11] = peptide conc. 3.33E-06 M, listed as des4.2.0_t1
[12] = peptide conc. 3.33E-06 M, listed as des4.2.0_t2
[13] = peptide conc. 3.70E-07 M, listed as des4.2.0_t1
[14] = peptide conc. 3.70E-07 M, listed as des4.2.0_t2
[15] = peptide conc. 4.12E-08 M, listed as des4.2.0_t1
[16] = peptide conc. 4.12E-08 M, listed as des4.2.0_t2
[17] = peptide conc. 4.57E-09 M, listed as des4.2.0_t1
[18] = peptide conc. 4.57E-09 M, listed as des4.2.0_t2
[19] = peptide conc. 5.08E-10 M, listed as des4.2.0_t1
[20] = peptide conc. 5.08E-10 M, listed as des4.2.0_t2

CC(C)[C@@H]1NC(=O)[C@H](CCCNC(=N)N)NC(=O)[C@@H](CC(=O)O)NC(=O)[C@H](CO)NC(=O)[C@@H](CO)NC(=O)[C@@H](CCC(=O)O)NC(=O)[C@H](Cc2ccc(O)cc2)NC(=O)[C@H](CCCCCS)NC1=O [des4.2.0, SHA-Tyr-dGlu-dSer-Ser-dAsp-Arg-Val] (HELM PEPTIDE1{R.V.[O=C([C@H](CCCCCS)N[*:1])[*:2]].Y.[dE].[dS].S.[dD]}$PEPTIDE1,PEPTIDE1,1:R1-8:R2$$$V2.0)
pIC50 (HDAC1; Supp. Table 1): 7.24
HDAC1 activity raw data (signal) (HDAC1; [1]): 11630
HDAC1 activity raw data (signal) (HDAC1; [2]): 12995
HDAC1 activity raw data (signal) (HDAC1; [3]): 76613
HDAC1 activity raw data (signal) (HDAC1; [4]): 123433
HDAC1 activity raw data (signal) (HDAC1; [5]): 411114
HDAC1 activity raw data (signal) (HDAC1; [6]): 418507
HDAC1 activity raw data (signal) (HDAC1; [7]): 880188
HDAC1 activity raw data (signal) (HDAC1; [8]): 934141
HDAC1 activity raw data (signal) (HDAC1; [9]): 1108126
HDAC1 activity raw data (signal) (HDAC1; [10]): 1086586
HDAC1 activity raw data (signal) (HDAC1; [11]): 45545
HDAC1 activity raw data (signal) (HDAC1; [12]): 50745
HDAC1 activity raw data (signal) (HDAC1; [13]): 212662
HDAC1 activity raw data (signal) (HDAC1; [14]): 215699
HDAC1 activity raw data (signal) (HDAC1; [15]): 634511
HDAC1 activity raw data (signal) (HDAC1; [16]): 682055
HDAC1 activity raw data (signal) (HDAC1; [17]): 995614
HDAC1 activity raw data (signal) (HDAC1; [18]): 978150
HDAC1 activity raw data (signal) (HDAC1; [19]): 1100683
HDAC1 activity raw data (signal) (HDAC1; [20]): 1179300
HDAC2 activity raw data (signal) (HDAC2; Conc. 1.00E-05 M, t1): 20394
HDAC2 activity raw data (signal) (HDAC2; Conc. 1.00E-05 M, t2): 38836
HDAC2 activity raw data (signal) (HDAC2; Conc. 1.11E-06 M, t1): 480221
HDAC2 activity raw data (signal) (HDAC2; Conc. 1.11E-06 M, t2): 475819
HDAC2 activity raw data (signal) (HDAC2; Conc. 1.23E-07 M, t1): 1083936
HDAC2 activity raw data (signal) (HDAC2; Conc. 1.23E-07 M, t2): 1073630
HDAC2 activity raw data (signal) (HDAC2; Conc. 1.37E-08 M, t1): 1586330
HDAC2 activity raw data (signal) (HDAC2; Conc. 1.37E-08 M, t2): 1580365
HDAC2 activity raw data (signal) (HDAC2; Conc. 1.52E-09 M, t1): 1730890
HDAC2 activity raw data (signal) (HDAC2; Conc. 1.52E-09 M, t2): 1745453
HDAC2 activity raw data (signal) (HDAC2; Conc. 3.33E-06 M, t1): 208395
HDAC2 activity raw data (signal) (HDAC2; Conc. 3.33E-06 M, t2): 205670
HDAC2 activity raw data (signal) (HDAC2; Conc. 3.70E-07 M, t1): 726508
HDAC2 activity raw data (signal) (HDAC2; Conc. 3.70E-07 M, t2): 767311
HDAC2 activity raw data (signal) (HDAC2; Conc. 4.12E-08 M, t1): 1358432
HDAC2 activity raw data (signal) (HDAC2; Conc. 4.12E-08 M, t2): 1262650
HDAC2 activity raw data (signal) (HDAC2; Conc. 4.57E-09 M, t1): 1679024
HDAC2 activity raw data (signal) (HDAC2; Conc. 4.57E-09 M, t2): 1646125
HDAC2 activity raw data (signal) (HDAC2; Conc. 5.08E-10 M, t1): 1775852
HDAC2 activity raw data (signal) (HDAC2; Conc. 5.08E-10 M, t2): 1816576
pIC50 (HDAC2; figure legends, Supp. Table 1, read-out: HDAC2 IC50): 6.67
pIC50 (HDAC8; Supp. Table 1): 6.43
HDAC8 activity raw data (signal) (HDAC8; [1]): 92279
HDAC8 activity raw data (signal) (HDAC8; [2]): 81671
HDAC8 activity raw data (signal) (HDAC8; [3]): 396585
HDAC8 activity raw data (signal) (HDAC8; [4]): 434279
HDAC8 activity raw data (signal) (HDAC8; [5]): 727023
HDAC8 activity raw data (signal) (HDAC8; [6]): 752193
HDAC8 activity raw data (signal) (HDAC8; [7]): 1107635
HDAC8 activity raw data (signal) (HDAC8; [8]): 1031405
HDAC8 activity raw data (signal) (HDAC8; [9]): 1115979
HDAC8 activity raw data (signal) (HDAC8; [10]): 1078250
HDAC8 activity raw data (signal) (HDAC8; [11]): 190039
HDAC8 activity raw data (signal) (HDAC8; [12]): 213758
HDAC8 activity raw data (signal) (HDAC8; [13]): 540901
HDAC8 activity raw data (signal) (HDAC8; [14]): 562035
HDAC8 activity raw data (signal) (HDAC8; [15]): 828599
HDAC8 activity raw data (signal) (HDAC8; [16]): 842494
HDAC8 activity raw data (signal) (HDAC8; [17]): 599790
HDAC8 activity raw data (signal) (HDAC8; [18]): 1026390
HDAC8 activity raw data (signal) (HDAC8; [19]): 1085628
HDAC8 activity raw data (signal) (HDAC8; [20]): 1128546
